From patent publication US10501453B2, “Benzothiazole or benzoxazole compounds as SUMO activators” (Icahn School of Medicine at Mount Sinai, priority 2012, dated 2019) come the findings set out here.

This assay concerns adult rat ventricular myocytes (ARVMs). Briefly: Cell shortening/re-lengthening and calcium transient of ARVMs (IonOptix). It counts as cell-based. As to the method:
Calcium-tolerant adult rat ventricular myocytes (ARVMs) were obtained from hearts of male Sprague-Dawley rats (250 to 300 g). The heart was excised and perfused with a standard enzymatic technique. ARVMs were plated on multi-chambered plates or culture dishes, pre-coated with laminin 2 μg/cm^2, at a density of 10^5 cells/cm^2 in DMEM without L-glutamine supplemented with 10 mmol/l HEPES, 3.7 mg/ml NaHCO3, 1 mg/ml glucose, 0.11 mg/ml sodium pyruvate, 2 mg/ml bovine serum albumin, 2 mmol/1 L-camitine, 5 mmol/1 creatine, 5 mmol/1 taurine, 1% penicillin-streptomycin, and 1% gentamycin. Following isolation, cells were allowed to settle for 1 hour. Cultures were incubated at 37° C., in an atmosphere of 5% CO2-95% air. Fresh medium was added gently as medium was being drawn off until the cultures had been thoroughly washed. Only quiescent, rod-shape cardiac myocytes were selected for IonOptix experiments.
Each compound was added at 10 μM. DMSO was used as a control. After 24 hours at 37° C., SERCA2a SUMOylation and functional analysis were determined.
Mechanical properties of ARVMs were assessed using an IonOptix MyoCam® system (IonOptix, Milton, Mass.). In brief, cells were placed in a Warner chamber mounted on the stage of an inverted microscope (Olympus, IX-70) and superfused (1 ml/min at 30° C.) with a buffer containing 131 mM NaCl, 4 mM KCl, 1 mM CaCh, 1 mM MgCh, 10 mM glucose, and 10 mM HEPES, pH 7.4. ARVMs were field stimulated with suprathreshold voltage and at a frequency of 0.5 Hz. […] SoftEdge software (IonOptix) was used to capture changes in cell length during shortening and re-lengthening.
ARVMs were placed in a chamber on an Olympus IX-70 inverted microscope and imaged through a Fluor 40× oil objective. ARVMs were exposed to light emitted by a 75 W lamp and passed through either a 360 or a 380 nm filter (bandwidths were ±15 nm), while being stimulated to contract at 0.5 Hz. Fluorescence emissions were detected between 480 and 520 nm by a photomultiplier tube after first illuminating cells at 360 nm for 0.5 s then at 380 nm for the duration of the recording protocol (333 Hz sampling rate). The 360 nm excitation scan was repeated at the end of the protocol and qualitative changes in intracellular Ca^2+ concentration ((Ca^2+]i) were inferred from the ratio of the fluorescence intensity at two wavelengths.
The effects of the Example compound was examined on isolated rat cardiomyocytes shortening and relaxation parameters. […] Effects of Example 1 on mechanical properties of the ARVMs were assessed using a video-based edge detection system (IonOptix). The time constant of the increase of force during the stretch decreased (tau), percentage of peak shortening (PS), maximal rate of relaxation and contraction were analyzed at 24 hrs postincubation of the compounds in culture media (N=10 ARVMs). The mechanical data were analyzed with student's t-test (FIG. 2A, P<0.05 compared to the DMSO treated cells). SERCA2a SUMOylation profiling was analyzed in a same set of ARVMs (FIG. 2B, WCL, whole cell lysates; S-SERCA2a, SUMOylated SERCA2a).

`COc1ccc(-c2nnc(Nc3nc4c(OC)cccc4s3)o2)cc1` [Example 1, N-(4-methoxybenzo[d]thiazol-2-yl)-5-(4-methoxyphenyl)-1,3,4-oxadiazol-2-amine]: where the note is “10 μM”, the “Tau value (dose response)” value came to 1.0 ± 0.1 ms. Also, the “effects on mechanical properties of ARVMs (inotropic, lusitropic)” value (24 hrs, versus DMSO) was “positive inotropic and lusitropic effects”. Where the note is “isolated adult cardiomyocytes, DMSO 2.4±0.2, n=10”, the “Tau (rate of transient calcium decay)” value turned out to be 1.8 ± 0.2 ms. The Peak shortening (isolated adult cardiomyocytes, DMSO 3.0±0.8, n=10) is on record as 12.0±0.8%. For the same compound, the “Maximal rate of relaxation” value (isolated adult cardiomyocytes, DMSO 54.0±2.4, n=10) worked out at 210.7±19.4 μm/sec. Besides, the “Maximal rate of contraction” value (isolated adult cardiomyocytes, DMSO −64.0±7.9, n=10) is on record as −185.5±6.5 μm/sec.
